Laboratory results taken from patent US20250235456A1, “METHODS OF USE FOR AZA-QUINAZOLINE COMPOUNDS” (Iambic Therapeutics, Inc., priority 2024, published 2025).

Columns and labels:
Assay type in all cases: biochemical
[1] = biological target: T1, CDK4/Cyclin D1 (Homo sapiens (Human), UniProt P11802); assay: CDK4/Cyclin D1 Mobility Shift Assay (MSA); conditions: read-out: CDK4/CyclinD1 MSA IC50
Excerpt: CDK4/Cyclin D1 Mobility Shift Assay (MSA) The purpose CDK4/Cyclin D1 assay is to evaluate the inhibition (% inhibition and IC50 values) in the presence of small molecule inhibitors by using a fluorescence based microfluidic mobility shift assay. CDK4/Cyclin D1 catalyzes the production of ADP from ATP that accompanies the phosphoryl transfer to the substrate peptide 5-FAM-Dyrktide (5-FAM-[…]) (Perkin Elmer Peptide 34). The mobility shift assay (MSA) electrophoretically separates the fluorescently labelled peptides (substrate and phosphorylated product) following the kinase reaction. Both substrate and product are measured, and the ratio of these values is used to generate % conversion of substrate to product by the LabChip EZ Reader. Typical reaction solutions contained 2% DMSO (+/−inhibitor), 10 mM MgCl2, 1 mM EGTA, 0.05% BSA, 2 mM DTT, 0.2 mM ATP, 0.01% Brig-35, 1.5 uM 5-FAM-Dyrktide, 2.5 nM CDK4/Cyclin D1 in 50 mM HEPES buffer at pH 7.5. The reaction was initiated with the addition of substrate solution, following a 30-minute pre-incubation of enzyme and inhibitor at 22° C. in the reaction mix. The reaction was stopped after 180 minutes by the addition of 75 μL of 500 mM EDTA and measured on a Perkin Elmer EZ reader instrument. IC50 determinations were made from a plot of the fractional velocity as a function of inhibitor concentration fit to the 4 parameters IC50 equation.

[2] = biological target: CDK6/Cyclin D3 (Homo sapiens (Human), UniProt Q00534); assay: CDK6/Cyclin D3 ADP-Glo Kinase Assay; conditions: read-out: CDK6/CyclinD3 IC50
Outline: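 Commercial CDK6/Cyclin D3 pre-incubated with inhibitor 30 min at room temperature, then reaction started with ATP/substrate and run 90 min at room temperature. ADP formed measured by ADP-Glo luminescence; IC50 from fractional velocity vs inhibitor concentration fit to a 4-parameter equation.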

[3] = biological target: CDK1/Cyclin B1 (Homo sapiens (Human), UniProt P06493); assay: CDK1/Cyclin B1 ADP-Glo Kinase Assay
Outline: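 Purchased CDK1/Cyclin B1 was pre-incubated 30 min with inhibitor at room temperature, then reacted 90 min at room temperature after adding ATP-containing substrate. ADP formed was read by two-step ADP-Glo luminescence. IC50 came from a 4-parameter fit of fractional velocity versus inhibitor concentration.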

[4] = biological target: T1, CDK4/Cyclin D1; assay: CDK4/Cyclin D1 CHEF Assay; conditions: AQT; read-out: CDK4/CyclinD1 AQT IC50
Outline: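 Peptide substrate AQT0258 carries a Sox fluorophore whose Mg(II)-dependent fluorescence (ex 360/em 485 nm) rises on phosphorylation. Enzyme and inhibitor pre-incubated 30 min at 22 °C, substrate added, reaction run 3 h at 22 °C. IC50 from 4-parameter fit of fractional velocity vs inhibitor concentration.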

[5] = biological target: CDK2/Cyclin E1 full length (Homo sapiens (Human), UniProt P24941); assay: CDK2/Cyclin E1 Full length ADP-Glo Kinase Assay; conditions: read-out: CDK2/CyclinE1 IC50
Protocol: CDK2/Cyclin E1 Full length ADP-Glo Kinase Assay
The purpose of CDK2/Cyclin El assay is to evaluate the inhibition (% inhibition and IC50 values) of small molecule inhibitors by using a Luminescent based ADP-Glo assay. CDK2/Cyclin El full length catalyzes the production of ADP from ATP. ADP-Glo assay monitors ADP producing biochemical reactions. ADP-Glo is performed in 2 steps upon completion of kinase reaction: a combined termination of kinase reaction and depletion of remaining ATP in the first step, and conversion of generated ADP to ATP and the newly produced ATP to light output using luciferase/luciferin reaction in the second step. The luminescent signal generated is proportional to the ADP concentration produced and is correlated with the kinase activity. CDK2/Cyclin E1 was purchased from Eurofins (Cat 14-475M). […] The assay was initiated with the addition of ATP-containing substrate solution, following a 30-minute pre-incubation of enzyme and inhibitor at room temperature in the reaction mixture. The reaction was stopped after 90 minutes at room temperature by the addition of 10 μL of ADP-GLO Reagent. After a 90 minute incubation, 20 uL of Kinase Detection Reagent was added. Samples were incubated for 40 minutes, after which plate well luminescence was measured on a Envision microplate reader. The IC50 determinations were made from a plot of the fractional velocity as a function of inhibitor concentration fit to the 4 parameters IC50 equation.

Sequence of CDK1/Cyclin B1 (P06493 whole entry): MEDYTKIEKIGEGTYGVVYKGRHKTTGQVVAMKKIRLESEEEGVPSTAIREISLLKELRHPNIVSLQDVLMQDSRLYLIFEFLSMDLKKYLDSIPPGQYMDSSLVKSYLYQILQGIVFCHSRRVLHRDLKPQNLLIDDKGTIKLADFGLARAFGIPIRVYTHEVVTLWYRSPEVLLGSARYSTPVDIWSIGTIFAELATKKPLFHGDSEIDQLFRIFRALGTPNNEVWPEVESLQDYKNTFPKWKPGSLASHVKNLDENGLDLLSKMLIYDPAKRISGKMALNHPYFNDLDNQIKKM
Sequence of CDK1/Cyclin B1 (P14635 whole entry partner): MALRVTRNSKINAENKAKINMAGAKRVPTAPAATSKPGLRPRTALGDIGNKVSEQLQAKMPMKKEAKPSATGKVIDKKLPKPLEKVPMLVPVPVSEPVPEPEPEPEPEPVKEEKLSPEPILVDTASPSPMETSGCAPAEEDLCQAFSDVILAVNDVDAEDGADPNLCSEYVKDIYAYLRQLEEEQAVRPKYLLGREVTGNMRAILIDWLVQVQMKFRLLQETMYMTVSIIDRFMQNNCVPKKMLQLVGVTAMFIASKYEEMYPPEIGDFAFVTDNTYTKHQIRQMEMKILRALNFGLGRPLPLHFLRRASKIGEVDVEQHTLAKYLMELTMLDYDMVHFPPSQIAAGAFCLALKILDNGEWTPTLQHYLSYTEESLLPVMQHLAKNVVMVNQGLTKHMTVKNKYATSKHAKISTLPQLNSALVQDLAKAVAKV
Sequence of CDK6/Cyclin D3 (Q00534 whole entry): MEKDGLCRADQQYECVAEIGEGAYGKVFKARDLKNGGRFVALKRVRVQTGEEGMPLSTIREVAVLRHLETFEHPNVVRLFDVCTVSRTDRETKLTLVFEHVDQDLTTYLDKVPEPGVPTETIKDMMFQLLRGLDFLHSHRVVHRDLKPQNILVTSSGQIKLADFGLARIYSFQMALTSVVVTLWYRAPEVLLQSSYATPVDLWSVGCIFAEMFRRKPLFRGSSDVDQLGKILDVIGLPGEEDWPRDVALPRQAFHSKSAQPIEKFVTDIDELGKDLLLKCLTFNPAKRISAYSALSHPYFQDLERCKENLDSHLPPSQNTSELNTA
Sequence of CDK6/Cyclin D3 (P30281 whole entry partner): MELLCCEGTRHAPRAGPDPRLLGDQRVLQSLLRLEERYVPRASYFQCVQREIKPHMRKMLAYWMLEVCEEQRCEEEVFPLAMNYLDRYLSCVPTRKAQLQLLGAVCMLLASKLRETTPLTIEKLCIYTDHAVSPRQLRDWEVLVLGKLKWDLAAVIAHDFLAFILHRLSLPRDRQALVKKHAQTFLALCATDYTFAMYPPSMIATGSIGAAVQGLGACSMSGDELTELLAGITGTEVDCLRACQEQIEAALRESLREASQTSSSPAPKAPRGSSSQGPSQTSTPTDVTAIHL
T1 sequence (P11802 whole entry, species assumed): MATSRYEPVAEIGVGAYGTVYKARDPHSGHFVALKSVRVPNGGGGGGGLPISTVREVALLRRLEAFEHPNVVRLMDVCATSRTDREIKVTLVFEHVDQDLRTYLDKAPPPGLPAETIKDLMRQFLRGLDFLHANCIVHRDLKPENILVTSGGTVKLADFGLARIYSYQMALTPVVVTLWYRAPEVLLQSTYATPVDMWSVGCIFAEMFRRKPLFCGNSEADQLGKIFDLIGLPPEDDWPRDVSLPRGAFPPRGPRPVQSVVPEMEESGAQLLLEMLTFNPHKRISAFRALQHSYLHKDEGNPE
T1 sequence (P24385 whole entry partner, species assumed): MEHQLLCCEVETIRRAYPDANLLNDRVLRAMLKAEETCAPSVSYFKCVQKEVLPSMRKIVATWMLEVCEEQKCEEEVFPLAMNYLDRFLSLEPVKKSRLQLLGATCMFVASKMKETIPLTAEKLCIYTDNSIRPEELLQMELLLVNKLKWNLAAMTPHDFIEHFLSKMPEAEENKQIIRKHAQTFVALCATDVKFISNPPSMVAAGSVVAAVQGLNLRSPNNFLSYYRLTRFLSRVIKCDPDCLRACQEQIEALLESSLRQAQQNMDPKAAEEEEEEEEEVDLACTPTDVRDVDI

| SMILES | IC50 [1] [µM] | IC50 [2] [µM] | IC50 [3] [µM] | IC50 [4] [µM] | IC50 [5] [µM] |
| --- | --- | --- | --- | --- | --- |
| CS(=O)(=O)N1CCC(Nc2ncc3ccnc(N4CCN(C5CC5)CC4)c3n2)CC1 [Compound 1, 8-(4-cyclopropylpiperazin-1-yl)-N-(1-(methylsulfonyl)piperidin-4-yl)pyrido[3,4-d]pyrimidin-2-amine] | < 0.2 | 0.2 to 0.5 |  |  |  |
| CS(=O)(=O)N1CCC(Nc2ncc3ccnc(N4CCC5(C4)CC5(F)F)c3n2)CC1 (stereo not drawn) [Compound 3, 8-(1,1-difluoro-5-azaspiro[2.4]heptan-5-yl)-N-(1-(methylsulfonyl)piperidin-4-yl)pyrido[3,4-d]pyrimidin-2-amine] | < 0.2 | < 0.2 | < 0.2 |  |  |
| CN1CCN(c2ccc(Nc3ncc4ccnc(N5CCC6(C5)CC(F)(F)C6)c4n3)cc2)CC1 [Compound 4, 8-(2,2-difluoro-6-azaspiro[3.4]octan-6-yl)-N-(4-(4-methylpiperazin-1-yl)phenyl)pyrido [3,4-d]pyrimidin-2-amine] | < 0.2 | < 0.2 | 0.2 to 0.5 |  |  |
| CS(=O)(=O)N1CCC(Nc2ncc3ccnc(N4CCC(C#N)(C5CC5)C4)c3n2)CC1 (stereo not drawn) [Compound 5, 3-cyclopropyl-1-(2-((1-(methylsulfonyl)piperidin-4-yl)amino)pyrido[3,4-d]pyrimidin-8-yl)pyrrolidine-3-carbonitrile] | < 0.2 | < 0.2 | < 0.2 |  |  |
| CS(=O)(=O)N1CCC(Nc2ncc3ccnc(N4CCC5(CCOCC5)C4)c3n2)CC1 [Compound 7, N-(1-(methylsulfonyl)piperidin-4-yl)-8-(8-oxa-2-azaspiro[4.5]decan-2-yl)pyrido[3,4-d]pyrimidin-2-amine] | < 0.2 | < 0.2 | 0.2 to 0.5 |  |  |
| CS(=O)(=O)N1CCC(Nc2ncc3ccnc(N4CC5(C4)CN(C4CC4)C5)c3n2)CC1 [Compound 8, 8-(6-cyclopropyl-2,6-diazaspiro[3.3]heptan-2-yl)-N-(1-(methylsulfonyl)piperidin-4-yl)pyrido[3,4-d]pyrimidin-2-amine] | < 0.2 |  | 0.2 to 0.5 |  |  |
| CN1CCN(c2ccc(Nc3ncc4ccnc(N5CCC6(CCN(S(C)(=O)=O)C6)C5)c4n3)cc2)CC1 (stereo not drawn) [Compound 9, N-(4-(4-methylpiperazin-1-yl)phenyl)-8-(7-(methylsulfonyl)-2,7-diazaspiro[4.4]nonan-2-yl) pyrido[3,4-d]pyrimidin-2-amine] | < 0.2 |  | 0.2 to 0.5 |  |  |
| CN1CCn2nc(Nc3ncc4ccnc(N5CCC6(C5)CC6(F)F)c4n3)cc2C1 (stereo not drawn) [Compound 10, 8-(1,1-difluoro-5-azaspiro[2.4]heptan-5-yl)-N-(5-methyl-4,5,6,7-tetrahydropyrazolo [1,5-a]pyrazin-2-yl)pyrido[3,4-d]pyrimidin-2-amine] | < 0.2 | < 0.2 | > 2 |  |  |
| CS(=O)(=O)N1CC(Nc2ncc3ccnc(N4CCC5(C4)CC5(F)F)c3n2)C1 (stereo not drawn) [Compound 14, 8-(1,1-difluoro-5-azaspiro[2.4]heptan-5-yl)-N-(1-(methylsulfonyl)azetidin-3-yl) pyrido[3,4-d]pyrimidin-2-amine] | < 0.2 | < 0.2 | 0.2 to 0.5 |  |  |
| CN1CCC(n2cc(Nc3ncc4ccnc(N5CCC6(C5)CC6(F)F)c4n3)cn2)CC1 (stereo not drawn) [Compound 20, 8-(1,1-difluoro-5-azaspiro[2.4]heptan-5-yl)-N-(1-(1-methylpiperidin-4-yl)-1H-pyrazol-4-yl)pyrido[3,4-d]pyrimidin-2-amine] | < 0.2 | < 0.2 |  |  |  |
| Cc1cc2cnc(Nc3ccc(N4CC5(CN(C)C5)C4)cc3)nc2c(N2CC3(C2)CS(=O)(=O)C3)n1 [Compound 30, 6-(6-methyl-2-((4-(6-methyl-2,6-diazaspiro[3.3]heptan-2-yl)phenyl)amino)pyrido[3,4-d]pyrimidin-8-yl)-2-thia-6-azaspiro[3.3]heptane 2,2-dioxide] |  | 0.2 to 0.5 | > 2 | 0.2 to 0.5 | 0.2 to 0.5 |
| Cc1cc2cnc(Nc3ccc(N4CC5(CN(C)C5)C4)cc3)nc2c(N2CCC3(CCOCC3)C2)n1 [Compound 35, 6-methyl-N-(4-(6-methyl-2,6-diazaspiro[3.3]heptan-2-yl)phenyl)-8-(8-oxa-2-azaspiro[4.5]decan-2-yl)pyrido[3,4-d]pyrimidin-2-amine] |  | < 0.2 | > 2 | < 0.2 | 0.2 to 0.5 |
| Cc1cc2cnc(Nc3cc4c(cc3F)CN(S(C)(=O)=O)C4)nc2c(N2CC3(CNC3)C2)n1 [Compound 37, N-(6-fluoro-2-(methylsulfonyl)isoindolin-5-yl)-6-methyl-8-(2,6-diazaspiro[3.3]heptan-2-yl) pyrido[3,4-d]pyrimidin-2-amine] |  | > 2 | > 2 | > 2 | 0.2 to 0.5 |
| Cc1cc2cnc(NC3CCN(S(C)(=O)=O)CC3)nc2c(N2CC3(C2)CN(C2CC2)C3)n1 [Compound 42, 8-(6-cyclopropyl-2,6-diazaspiro[3.3]heptan-2-yl)-6-methyl-N-(1-(methylsulfonyl)piperidin-4-yl)pyrido[3,4-d]pyrimidin-2-amine] |  | 0.5 to 2 | > 2 | < 0.2 | < 0.2 |
| O=S(=O)(C1CC1)N1CCC(Nc2ncc3cc(C(F)F)nc(N4CC5(CCNC5)C4)c3n2)CC1 [Compound 46, 1-(cyclopropanesulfonyl)-N-(8-{2,6-diazaspiro[3.4]octan-2-yl}-6-(difluoromethyl)pyrido[3,4-d]pyrimidin-2-yl)piperidin-4-amine] |  | < 0.2 | < 0.2 | < 0.2 | < 0.2 |
| Cc1cc2cnc(NC3CCN(S(C)(=O)=O)CC3)nc2c(N2CC3(CN(C)C[C@@H]3F)C2)n1 [Compound 103, (R)-8-(8-fluoro-6-methyl-2,6-diazaspiro[3.4]octan-2-yl)-6-methyl-N-(1-(methylsulfonyl)piperidin-4-yl)pyrido[3,4-d]pyrimidin-2-amine] |  | < 0.2 | 0.5 to 2 | < 0.2 | < 0.2 |
| Cc1cc2cnc(NC3CCN(S(C)(=O)=O)CC3)nc2c(N2CC3(CN(C)C[C@H]3F)C2)n1 [Compound 104, (S)-8-(8-fluoro-6-methyl-2,6-diazaspiro[3.4]octan-2-yl)-6-methyl-N-(1-(methylsulfonyl)piperidin-4-yl)pyrido[3,4-d]pyrimidin-2-amine] |  | 0.2 to 0.5 | 0.5 to 2 | < 0.2 | < 0.2 |
| CS(=O)(=O)N1CCC(Nc2ncc3ccnc(N4CCC5(C4)CC(F)(F)C5)c3n2)CC1 [Example 2, 8-(2,2-difluoro-6-azaspiro[3.4]octan-6-yl)-N-(1-(methylsulfonyl)piperidin-4-yl)pyrido[3,4-d]pyrimidin-2-amine] | < 0.2 | < 0.2 | < 0.2 |  |  |
| CCN1CC2(C1)CN(c1ccc(Nc3ncc4ccnc(N5CCC6(C5)CC(F)(F)C6)c4n3)nc1)C2 [Example 6, 8-(2,2-difluoro-6-azaspiro[3.4]octan-6-yl)-N-(5-(6-ethyl-2,6-diazaspiro[3.3]heptan-2-yl)pyridin-2-yl)pyrido[3,4-d]pyrimidin-2-amine] | < 0.2 | < 0.2 | > 2 |  |  |
